Values belong to the compound of their own block, whether it stands above or below them.
Key:
[1] = Acidity / pH of doping solution, titration with 0.1 N KOH; assay type: physicochemical
Excerpt: In order to confirm a doping function of the dopants of Examples, pH of a doping solution was checked by using a 0.1 N KOH solution. […] Therefore, a function as a dopant could be confirmed.

[2] = Solubility in various solvents; assay type: physicochemical; parameters: key: +++: dissolved well; ++: almost dissolved, but not completely dissolved and somewhat precipitated; +: opaquely dispersed; −: not dissolved but precipitated
Method: Solubility properties of polyaniline ES in various organic solvents using the dopants of Examples were compared and checked in the same experimental conditions. […] After a basket mixing process, transmittances were measured and an average particle size was measured by using a particle size analyzer, and measurement results are as shown in Table 5.

SMILES: O=S(=O)(O)CCCOc1ccc(O)cc1 [Dopant II]
Titration (Acidity) 0.1N KOH; converted into sulfonic acid [1]: 85% | Solubility in BuO—EtOH [2]: +++ | Solubility in CHCl3 [2]: − | Solubility in H2O [2]: +++ | Solubility in MEK [2]: + | Solubility in MeOH [2]: +++ | Solubility in NMP [2]: +++ | Solubility in isopropyl alcohol [2]: ++ | Solubility in m-cresol [2]: ++ | Solubility in toluene [2]: −

SMILES: O=S(=O)(O)CCCOc1ccc(-c2ccccc2)cc1 [Dopant IV]
Solubility in BuO—EtOH [2]: + | Solubility in CHCl3 [2]: − | Solubility in H2O [2]: +++ | Solubility in MEK [2]: + | Solubility in MeOH [2]: +++ | Solubility in NMP [2]: +++ | Solubility in isopropyl alcohol [2]: + | Solubility in m-cresol [2]: +++ | Solubility in toluene [2]: −

SMILES: O=S(=O)(O)CCCOc1ccc(OCc2ccccc2)cc1 [Dopant V]
Solubility in BuO—EtOH [2]: +++ | Solubility in CHCl3 [2]: − | Solubility in H2O [2]: +++ | Solubility in MEK [2]: ++ | Solubility in MeOH [2]: +++ | Solubility in NMP [2]: +++ | Solubility in isopropyl alcohol [2]: ++ | Solubility in m-cresol [2]: ++ | Solubility in toluene [2]: −

Further lines, results first:

Titration (Acidity) 0.1N KOH; converted into sulfonic acid [1]: 86% | Solubility in BuO—EtOH [2]: ++ | Solubility in CHCl3 [2]: − | Solubility in H2O [2]: +++ | Solubility in MEK [2]: + | Solubility in MeOH [2]: +++ | Solubility in NMP [2]: ++ | Solubility in isopropyl alcohol [2]: +++ | Solubility in m-cresol [2]: ++ | Solubility in toluene [2]: −
SMILES: Cc1cccc(OCCCS(=O)(=O)O)c1 [Dopant I]

Solubility in BuO—EtOH [2]: +++ | Solubility in CHCl3 [2]: − | Solubility in H2O [2]: +++ | Solubility in MEK [2]: + | Solubility in MeOH [2]: +++ | Solubility in NMP [2]: +++ | Solubility in isopropyl alcohol [2]: +++ | Solubility in m-cresol [2]: ++ | Solubility in toluene [2]: −
SMILES: Cc1cc(OCCCS(=O)(=O)O)ccc1O [Dopant VI]

From patent publication US20140051815A1, “ORGANIC SULFONIC ACID COMPOUND, DOPANT HAVING SAME, AND CONDUCTIVE POLYMER COMPLEX HAVING THE DOPANT” (Ajou University Industry-Academic Cooperation Foundation, priority 2011, published 2014)
